Drawing on ChEMBL document CHEMBL1136340, “Indole-2-carboxamides as novel NR2B selective NMDA receptor antagonists” (Bioorg Med Chem Lett, 2003), this text covers IC50 for twelve compounds.

Assay [1] deals with Glutamate NMDA receptor; GRIN1/GRIN2B (Homo sapiens, UniProt Q05586+Q13224). The experiment in a line: Inhibition of N-methyl-D-aspartate glutamate receptor-evoked increase of intracellular Ca+ in cells expressing NMDA glutamate receptor 1/2B. The format is functional, cell-based.
The target of assay [2] is Glutamate [NMDA] receptor. Briefly: Inhibition of [3H]Ro-256981 binding to N-methyl-D-aspartate glutamate receptor. The format is protein-complex assay.

Chain of Glutamate NMDA receptor; GRIN1/GRIN2B (Q13224 whole entry, other chains not shown): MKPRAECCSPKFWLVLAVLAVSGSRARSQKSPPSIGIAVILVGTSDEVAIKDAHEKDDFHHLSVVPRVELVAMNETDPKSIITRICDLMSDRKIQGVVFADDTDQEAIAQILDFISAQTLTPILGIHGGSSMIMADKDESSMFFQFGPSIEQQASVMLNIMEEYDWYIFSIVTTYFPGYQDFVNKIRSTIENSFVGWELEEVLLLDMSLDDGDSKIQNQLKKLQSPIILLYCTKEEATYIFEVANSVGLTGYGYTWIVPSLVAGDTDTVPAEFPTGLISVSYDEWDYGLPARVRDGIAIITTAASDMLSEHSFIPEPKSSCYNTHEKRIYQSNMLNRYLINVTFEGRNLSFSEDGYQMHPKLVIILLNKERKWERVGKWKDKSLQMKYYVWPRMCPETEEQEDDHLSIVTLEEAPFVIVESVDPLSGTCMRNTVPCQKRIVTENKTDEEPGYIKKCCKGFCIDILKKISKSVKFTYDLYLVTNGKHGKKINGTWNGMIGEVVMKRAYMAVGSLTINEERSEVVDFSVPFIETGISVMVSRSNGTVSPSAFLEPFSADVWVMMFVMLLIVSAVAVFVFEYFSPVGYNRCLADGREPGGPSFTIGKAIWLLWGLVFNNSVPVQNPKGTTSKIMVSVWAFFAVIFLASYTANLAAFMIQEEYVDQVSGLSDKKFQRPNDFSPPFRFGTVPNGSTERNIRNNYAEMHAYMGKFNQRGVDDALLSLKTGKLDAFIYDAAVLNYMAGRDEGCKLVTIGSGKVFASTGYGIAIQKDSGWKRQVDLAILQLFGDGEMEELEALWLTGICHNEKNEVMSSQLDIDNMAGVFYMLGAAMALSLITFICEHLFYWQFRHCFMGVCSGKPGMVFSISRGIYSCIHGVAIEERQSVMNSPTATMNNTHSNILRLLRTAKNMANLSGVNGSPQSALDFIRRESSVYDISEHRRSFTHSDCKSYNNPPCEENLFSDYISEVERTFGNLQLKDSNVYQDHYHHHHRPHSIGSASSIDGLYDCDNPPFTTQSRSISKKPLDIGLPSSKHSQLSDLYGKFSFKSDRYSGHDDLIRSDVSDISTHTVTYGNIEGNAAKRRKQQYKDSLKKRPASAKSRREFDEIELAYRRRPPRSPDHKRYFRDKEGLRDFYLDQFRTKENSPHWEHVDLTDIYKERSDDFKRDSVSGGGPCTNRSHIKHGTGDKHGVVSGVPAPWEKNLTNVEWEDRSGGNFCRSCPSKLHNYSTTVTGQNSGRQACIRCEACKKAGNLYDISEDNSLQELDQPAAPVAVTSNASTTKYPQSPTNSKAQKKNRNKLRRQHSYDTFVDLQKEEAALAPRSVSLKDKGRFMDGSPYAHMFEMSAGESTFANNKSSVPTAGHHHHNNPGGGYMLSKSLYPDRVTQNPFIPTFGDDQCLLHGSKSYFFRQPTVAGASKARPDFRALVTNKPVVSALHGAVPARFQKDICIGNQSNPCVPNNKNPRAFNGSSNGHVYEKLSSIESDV

As to `O=C(/C=C/c1ccc(O)cc1)N1CCC(Cc2ccccc2)CC1`, the IC50 (usually the concentration that gives 50% inhibition) in assay [1] worked out at 104 nM; in assay [2], 196 nM.

Turning to `O=C(c1cc2cccc(O)c2[nH]1)N1CCC(Cc2ccccc2)CC1`, the IC50 turned out to be 77 nM in assay [1] and 380 nM in assay [2].

On to `O=C(c1cc2cc(O)cc(O)c2[nH]1)N1CCC(Cc2ccccc2)CC1`, for which the values for the IC50 in assay [1] and in assay [2] were 52 nM and 106 nM, respectively.

As for `O=C(c1cc2c(O)cccc2[nH]1)N1CCC(Cc2ccccc2)CC1`, the values for the half-maximal inhibitory concentration (IC50) in assay [1] and in assay [2] were 39 nM and 18 nM, respectively.

In the case of `O=C(c1cc2cc(O)ccc2[nH]1)N1CCC(Cc2ccccc2)CC1`, the results for the IC50 in assay [1] and in assay [2] were 40 nM and 31 nM, respectively.

With `O=C(c1cc2c(O)cc(O)cc2[nH]1)N1CCC(Cc2ccccc2)CC1`, the results for the IC50 in assay [1] and in assay [2] were 10 nM and 6 nM, respectively.

As to `C[C@@H](CN1CCC(Cc2ccccc2)CC1)[C@@H](O)c1ccc(O)cc1`, the IC50 is 57 nM in assay [1] and 6 nM in assay [2].

As to `O=C(c1cc2ccc(O)cc2[nH]1)N1CCC(Cc2ccccc2)CC1`, the IC50 in assay [1] is 20 nM; in assay [2], 12 nM.

In the case of `O=C(c1cc2ccc(O)cc2[nH]1)N1CCC(c2ccccc2)CC1`, the IC50 in assay [1] was greater than 8000 nM.

As to `O=C(c1cc2ccc(O)cc2[nH]1)N1CCC(CCc2ccccc2)CC1`, the concentration for half-maximal inhibition (IC50) stood at 24 nM in assay [1] and 359 nM in assay [2].

Take `O=C(c1cc2ccc(O)cc2[nH]1)N1CCC(OCc2ccccc2)CC1`: the IC50 was 46 nM in assay [1] and 47 nM in assay [2].

As for `O=c1[nH]c2ccc([S+]([O-])CCN3CCC(Cc4ccc(F)cc4)CC3)cc2o1` (stereo not drawn) [BESONPRODIL], the values for the IC50 in assay [1] and in assay [2] were 8 nM and 4 nM, respectively.
